# Publication PMC5944968, “A multi-chamber microfluidic intestinal barrier model using Caco-2 cells for drug transport studies” (PLoS ONE, 2018)
# Where two headings read alike, the source gives them in different places.
# Experiments:
# Caco-2 monolayers [1] = test: TEER of Caco-2 monolayers in microfluidic device after permeation enhancer; type: cell-based, Human
# Method: TEER measurements (Ω) of the Caco-2 cells cultured in the microfluidic device were obtained by coupling the connecting wires of the electrodes to a multimeter (Keithley, USA) using alligator clips. Each chamber contained two sets of top electrodes and two sets of bottom electrodes. Each time the TEER values were recorded, only one top electrode and one bottom electrode are connected to the multimeter. Four different configurations of TEER values were recorded, averaged to calculate the final TEER values measured across the microchamber.
# The final TEER values (Ω cm^2) were determined by subtracting the baseline measurement in the absence of cells (Rbaseline) from the read out (R1) and multiplying with the area of cell culture (Ao, 1.12 cm^2 for Transwell and 0.1 cm^2 for the microfluidic device) as shown in Eq 1.
# (§1) Buffer^+ was prepared by mixing Hank’s Buffered Saline solution (HBSS; Gibco, Denmark), 0.1% (wt/vol) OVA (ovalbumin; from chicken egg white, Sigma, Denmark) and 10 mM HEPES (HEPES; Sigma, Denmark) at pH 7.4.
# To validate the accuracy and dynamic span of TEER values acquired from the electrodes on the microfluidic chip, a permeation enhancer, tetradecyl-β-D-maltoside (TDM), was introduced to the Caco-2 monolayers for two hours. The concentration of TDM used in the earlier reported studies is expected to cause a transient disruption of the Caco-2 monolayer integrity, while causing minimal cell death, which is reversible after 24 hours in fresh cell culture medium.
# Caco-2 monolayers [2] = test: TEER of Caco-2 monolayers in Transwell inserts after permeation enhancer; type: cell-based, Human; settings: recovering to normal levels within 24h in fresh medium
# Method: TEER was measured in Transwell inserts with Millicell ERS-2 chopstick Silver/SilverChloride (Ag/AgCl) electrodes (Millipore, USA), and calculated via Eq 1 (see below). […] Sigma, Denmark), insulin (Novo Nordisk, Denmark) and tetradecyl-β-D-Maltoside (TDM; Sigma, Denmark) were all prepared using buffer^+ as the diluent. Buffer^+ was prepared by mixing Hank’s Buffered Saline solution (HBSS; Gibco, Denmark), 0.1% (wt/vol) OVA (ovalbumin; from chicken egg white, Sigma, Denmark) and 10 mM HEPES (HEPES; Sigma, Denmark) at pH 7.4. […] The gentle shaking was to ensure there was little unstirred diffusion layers of fluid in the basolateral region. […] PerkinElmer), after mixing with scintillation fluid (Microscint-40; PerkinElmer), along with a peptide and FD4 content. After the experiments, the cells were washed twice with buffer^+ and replenished with medium for 24 hour recovery. In the microfluidic system, similar to the Transwell studies, before the start of experiment, the DMEM was replaced with buffer^+. Buffer^+ was flowed into the system for 1 hr. Subsequently, the buffer was changed to the test solutions in the top fluidic layer. Flow rate was set at 3 μl/min (in both the upper and lower layers). In the collection reservoirs of the basolateral chambers, 200 μl of buffer was added to each of the collection reservoirs. […]
# P-gp = test: Rh 123 bidirectional permeability / P-gp efflux across Caco-2 monolayers in microfluidic device; type: in vitro ADME; settings: human, day 10 of cell culture; for Papp at 10 μM: Caco-2, 10 μM Rh 123, microfluidic device, n = 3
# Method: Before carrying out the Rh 123 studies, buffer^+ was flowed to both the upper and lower channels for 1 hr. Following that Rh 123 (Sigma-Aldrich, Denmark) prepared in buffer^+ to a concentration of 10 μM was flowed to the basolateral side. 200μl of buffer^+ was added to each waste reservoirs. At each 15min interval, 150 μl was removed from the respective waste reservoirs with replacement of 150μl of buffer^+. Studies were carried out in triplicates.
# (§2) The Caco-2 translocation of peptide, [^3H]mannitol or Rh 123 over Caco-2 layers is expressed as the apparent permeability (Papp), given by: Papp=dQ/dt1/AC0 (2) Where dQ/dt is the steady-state flux across the cell layer (pmol/s), A is the surface area (1.12 cm^2 for Transwell, 0.1 cm^2 for microfluidic), and C0 is the initial sample concentration.
# For the P-gp studies, the collected samples were analyzed for Rh 123 content using a fluorescence plate reader with excitation/emission of 485/546nm, based on standard curves prepared from test solutions. The efflux ratio of P-gp was determined by: effluxratio=Papp(Basal→Apical)/Papp(Apical→Basal) (4)
# Caco-2 monolayers [3] = tested on: Caco-2 monolayers
# Method: as §1, §2
smiles,measurement,setting,value
"CCCCCCCCCCCCCCO[C@@H]1O[C@H](CO)[C@@H](O[C@H]2O[C@H](CO)[C@@H](O)[C@H](O)[C@H]2O)[C@H](O)[C@H]1O [TDM, tetradecyl-β-D-maltoside]","TEER in the presence of TDM, % of initial values",Caco-2 monolayers [1]; TDM for two hours,21%
same,"TEER recovery, % of initial values",Caco-2 monolayers [1]; after 24 hours of continuous perfusion with cell culture medium,90%
same,TEER change following TDM addition,Caco-2 monolayers [1]; recovering to normal levels within 24h in fresh medium,reversibly decreased
same,TEER change following TDM addition,Caco-2 monolayers [2],reversibly decreased
"COC(=O)c1ccccc1-c1c2ccc(=N)cc-2oc2cc(N)ccc12 [Rh 123, Rhodamine 123]",Papp at 10 μM,P-gp; read-out: Papp(apical → basal),~1.03 ×10⁻⁶ cm/s
same,Papp at 10 μM,P-gp; read-out: Papp(basal → apical),~11.2 ×10⁻⁶ cm/s
same,efflux ratio at 10 μM,"P-gp; Caco-2, microfluidic device, read-out: efflux ratio Papp(Basal→Apical)/Papp(Apical→Basal)",~10.8
OC[C@@H](O)[C@@H](O)[C@H](O)[C@H](O)CO [mannitol],Papp in microfluidic chip compared to static Transwell cultures,Caco-2 monolayers [3],slightly higher (not significant)
